Experimental data: patent US6153756A, “Soluble prodrugs of paclitaxel” (priority 1997, dated 2000)
Values joined by “and” are separate entries in the source; they are usually repeats but may differ in a detail not shown here. Equal entries are not always repeated. Structures can show the parent of a compound that is named as a salt. Where two headings read alike, the source gives them in different places.

Columns and labels:
[1] = Extraction of 2'-MPM from water into CH2Cl2; type: physicochemical; conditions: three samples (1.2, 1.0, 0.98 mg) in water (1 ml) stirred with CH2Cl2 (1 ml)
Experimental: Extraction: Three samples (1.2,1.0 and 0.98 mg) were dissolved in water (1 ml) and vigorously stirred with CH2 Cl2 (1 ml). The organic phase was transferred to a clean, tared vial and concentrated in vacuo. The residue was weighed and compared to the theoretical input to gauge the effectiveness of the extraction procedure. Average return for this extraction was about 44% of theoretical.

[2] = Water solubility of paclitaxel and of its prodrugs (general statements); type: physicochemical; conditions: listed advantage of the novel salts
[3] = Aqueous stability of 2'-MPM in H2O and 0.2M NaCl; type: physicochemical
Experimental: Aqueous Stability: The stability of the prodrug in H2 O and 0.2M NaCl was examined at both room temperature and under refrigerated conditions. Samples in H2 O (0.54 mg in 2 ml) and NaCl (0.57 mg in 2 ml) at room temperature were examined at two minute time intervals (0 through 12 minutes), 2 hours and 24 hours. […] At 4° C. the product concentration was unchanged at 24 and 48 hours but decreased to 90% after 72 hours. […] At 4° C. the product concentration was unchanged at 24 hours, was 91% at 48 hours and was 88% at 72 hours.

[4] = Solubility of 2'-MPM in deionized water; type: physicochemical
Experimental: Solubility: Deionized water (0.5 ml) was added to three samples of the 2'-MPM (1.54 mg, 0.97 mg and 0.80 mg) and the flask sonicated for approximately one (1) minute.

[5] = Stability of 2'-MPA after HPLC purification in presence of excess acetate; type: physicochemical; conditions: excess acetate ion, upon concentration of HPLC effluent, to paclitaxel
[6] = Stability of paclitaxel 2'-methylpyridinium acetate (HPLC); type: physicochemical
Experimental: The onium salt paclitaxel-2'-MPA was prepared by the method of Nicolaou et al., Angew. Chim. Int. Engl., 33:1583-1587 ([…]). A 2.40 mg/ml solution of the paclitaxel-2'-MPA was prepared by dissolving the salt (10.2 mg) in a solution of water (3.024 ml) and polyethylene glycol (1.234 ml). Samples of this solution were frozen. The frozen samples were slowly warmed to room temperature and homogenized with CH3 CN (50 μl). An aliquot (50 μl) was removed and diluted to a final volume of 200 μl with deionized H2 O and analyzed via HPLC (20 μl injection).
Analysis conditions were as follows: […]
Mobile phase: 50% MeOH/80 mM NH4 OAc

[7] = test system: neoplasms including breast; conditions: several types of neoplasms including breast; cited from earlier work
[8] = freshly prepared solution, 0.53 mg/ml in CH3CN

Compound: CC(=O)O[C@H]1C(=O)[C@@]2(C)[C@H]([C@H](OC(=O)c3ccccc3)[C@]3(O)C[C@H](OC(=O)[C@H](Oc4cccc[n+]4C)[C@@H](NC(=O)c4ccccc4)c4ccccc4)C(C)=C1C3(C)C)[C@]1(OC(C)=O)CO[C@@H]1C[C@@H]2O [2'-MPM, Paclitaxel-2'-Methylpyridinium Mesylate]
- Average return for extraction into CH2Cl2 [1]: about 44 % of theoretical
- solubility compared with paclitaxel [2]: much higher than for paclitaxel
- product concentration ([3]; 0.2M NaCl, 4° C., 24 hours): unchanged
- remaining at 48 h ([3]; 0.2M NaCl, 4° C., 48 hours, read-out: product concentration): 91%
- remaining at 72 h ([3]; 0.2M NaCl, 4° C., read-out: product concentration): 88%
- degraded at 2 h ([3]; 0.2M NaCl, room temperature, 2 hours, read-out: drop in product concentration): 1 to 2%
- remaining at 24 h ([3]; 0.2M NaCl, room temperature, 24 hours, read-out: product concentration): 70%
- Aqueous stability ([3]; 0.2M NaCl, room temperature, first ten minutes): no apparent change
- remaining at 72 h ([3]; H2O, 4° C., read-out: product concentration): 90%
- Aqueous stability ([3]; H2O, room temperature, 2 hours): relatively unchanged
- remaining at 24 h ([3]; H2O, room temperature, 24 hours, read-out: product concentration): 56%
- stability compared with 2'-MPA salt ([3]; aqueous solution, 4° C.): significantly more stable than the 2'-MPA salt
- MPM salt remaining (summary statement) ([3]; aqueous solution, 4° C., 24 hours): unchanged
- remaining at 72 h ([3]; water, aqueous solution, 4° C., read-out: MPM salt remaining (summary statement)): 88 to 91%
- upper limit of solubility ([4]; deionized water): has not been attained as yet
- Solubility: sample amount for which solution was attained ([4]; deionized water 0.5 ml, sonicated approx. 1 min): 0.97 mg and 0.80 mg
- Solubility: additional water required to provide a free-flowing solution ([4]; largest sample (1.54 mg), on top of 0.5 ml deionized water): 0.1 mL

Compound: CC(=O)O[C@H]1C(=O)[C@@]2(C)[C@H]([C@H](OC(=O)c3ccccc3)[C@]3(O)C[C@H](OC(=O)[C@H](Oc4cccc[n+]4C)[C@@H](NC(=O)c4ccccc4)c4ccccc4)C(C)=C1C3(C)C)[C@]1(OC(C)=O)CO[C@@H]1C[C@@H]2O [2'-MPA, Paclitaxel 2'-Methylpyridinium Acetate]
- stability on HPLC purification [5]: decomposes rapidly
- Paclita. % (paclitaxel in 2'-MPA sample) ([6]; 4° C., 1 Hour): 15%
- Unkno. % (unknown in 2'-MPA sample) ([6]; 4° C., 1 Hour): No peak eluted
- Paclita. % (paclitaxel in 2'-MPA sample) ([6]; 4° C., 2 Weeks): 9%
- Unkno. % (unknown in 2'-MPA sample) ([6]; 4° C., 2 Weeks): 10%
- Paclita. % (paclitaxel in 2'-MPA sample) ([6]; 4° C., 6 Hours): 11%
- Unkno. % (unknown in 2'-MPA sample) ([6]; 4° C., 6 Hours): 14%
- Paclita. % (paclitaxel in 2'-MPA sample) ([6]; 4° C., 18 Hours): 10%
- Unkno. % (unknown in 2'-MPA sample) ([6]; 4° C., 18 Hours): 17%
- Paclita. % (paclitaxel in 2'-MPA sample) ([6]; 4° C., 42 Hours): 9%
- Unkno. % (unknown in 2'-MPA sample) ([6]; 4° C., 42 Hours): 12%
- Paclita. % (paclitaxel in 2'-MPA sample) ([6]; 4° C., 66 Hours): 11%
- Unkno. % (unknown in 2'-MPA sample) ([6]; 4° C., 66 Hours): 16%
- Paclita. % (paclitaxel in 2'-MPA sample) ([6]; Room Temperature, 1 Hour): 14%
- Unkno. % (unknown in 2'-MPA sample) ([6]; Room Temperature, 1 Hour): 8%
- Paclita. % (paclitaxel in 2'-MPA sample) ([6]; Room Temperature, 6 Hours): 14%
- Unkno. % (unknown in 2'-MPA sample) ([6]; Room Temperature, 6 Hours): 8%
- Paclita. % (paclitaxel in 2'-MPA sample) ([6]; Room Temperature, 42 Hours): 17%
- Unkno. % (unknown in 2'-MPA sample) ([6]; Room Temperature, 42 Hours): 10%
- Paclita. % (paclitaxel in 2'-MPA sample) ([6]; Room Temperature, 66 Hours): 13%
- Unkno. % (unknown in 2'-MPA sample) ([6]; Room Temperature, 66 Hours): 8%
- Paclita. % (paclitaxel in 2'-MPA sample) ([6]; Room Temperature, 90 Hours): 15%
- Unkno. % (unknown in 2'-MPA sample) ([6]; Room Temperature, 90 Hours): 12%
- 2'-MPA peak [6, 8]: 75%
- Paclitaxel peak in 2'-MPA sample [6, 8]: 15%
- Unknown peak in 2'-MPA sample [6, 8]: 10%
- remaining at 1 h ([6]; water/polyethylene glycol, 4° C., 1 Hour, read-out: 2'-MPA %): 85%
- remaining at 336 h ([6]; water/polyethylene glycol, 4° C., 2 Weeks, read-out: 2'-MPA %): 79%
- remaining at 6 h ([6]; water/polyethylene glycol, 4° C., 6 Hours, read-out: 2'-MPA %): 75%
- remaining at 18 h ([6]; water/polyethylene glycol, 4° C., 18 Hours, read-out: 2'-MPA %): 73%
- remaining at 42 h ([6]; water/polyethylene glycol, 4° C., 42 Hours, read-out: 2'-MPA %): 79%
- remaining at 66 h ([6]; water/polyethylene glycol, 4° C., 66 Hours, read-out: 2'-MPA %): 73%
- remaining at 1 h ([6]; water/polyethylene glycol, Room Temperature, 1 Hour, read-out: 2'-MPA %): 78%
- remaining at 6 h ([6]; water/polyethylene glycol, Room Temperature, 6 Hours, read-out: 2'-MPA %): 78%
- remaining at 18 h ([6]; water/polyethylene glycol, Room Temperature, 18 Hours, peaks of paclitaxel and unknown coeluted, read-out: 2'-MPA %): 69%
- remaining at 42 h ([6]; water/polyethylene glycol, Room Temperature, 42 Hours, read-out: 2'-MPA %): 73%
- remaining at 66 h ([6]; water/polyethylene glycol, Room Temperature, 66 Hours, read-out: 2'-MPA %): 79%
- remaining at 90 h ([6]; water/polyethylene glycol, Room Temperature, 90 Hours, read-out: 2'-MPA %): 73%

Compound: CC(=O)O[C@H]1C(=O)[C@@]2(C)[C@H]([C@H](OC(=O)c3ccccc3)[C@]3(O)C[C@H](OC(=O)[C@H](O)[C@@H](NC(=O)c4ccccc4)c4ccccc4)C(C)=C1C3(C)C)[C@]1(OC(C)=O)CO[C@@H]1C[C@@H]2O [Paclitaxel, paclitaxel]
- effectiveness in chemotherapy [7]: effective for chemotherapy for several types of neoplasms including breast
